Laboratory results taken from PubChem BioAssay (NCI).
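Grown in 96-well plates, cells were treated for 48 hours with each compound at five concentrations. Insufficient inhibition: endpoint recorded as highest concentration tested. TGI denotes the concentration required for complete inhibition of growth.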

Key:
Assay in all cases: NCI anticancer screen, dose series, 48 h
KM12 colon = system: KM12 colon
UACC-257 melanoma = system: UACC-257 melanoma
EKVX NSCLC = system: EKVX NSCLC
SNB-19 CNS = system: SNB-19 CNS
CCRF-CEM leukemia = system: CCRF-CEM leukemia
A549 NSCLC = system: A549 NSCLC
ACHN renal = system: ACHN renal
HL-60(TB) leukemia = system: HL-60(TB) leukemia
NCI-H460 lung = system: NCI-H460 lung
COLO 205 colon = system: COLO 205 colon
NCI-H522 lung = system: NCI-H522 lung
HCC-2998 colon = system: HCC-2998 colon
NCI-H226 lung = system: NCI-H226 lung
U251 CNS = system: U251 CNS
OVCAR-5 ovarian = system: OVCAR-5 ovarian
CAKI-1 renal = system: CAKI-1 renal
MDA-N = system: MDA-N
MCF7 breast = system: MCF7 breast
BT-549 breast = system: BT-549 breast
DU-145 prostate = system: DU-145 prostate

| SMILES | TGI (KM12 colon) [µM] | TGI (UACC-257 melanoma) [µM] | TGI (EKVX NSCLC) [µM] | TGI (SNB-19 CNS) [µM] | TGI (CCRF-CEM leukemia) [µM] | TGI (A549 NSCLC) [µM] | TGI (ACHN renal) [µM] | TGI (HL-60(TB) leukemia) [µM] | TGI (NCI-H460 lung) [µM] | TGI (COLO 205 colon) [µM] | TGI (NCI-H522 lung) [µM] | TGI (HCC-2998 colon) [µM] | TGI (NCI-H226 lung) [µM] | TGI (U251 CNS) [µM] | TGI (OVCAR-5 ovarian) [µM] | TGI (CAKI-1 renal) [µM] | TGI (MDA-N) [µM] | TGI (MCF7 breast) [µM] | TGI (BT-549 breast) [µM] | TGI (DU-145 prostate) [µM] |
| --- | --- | --- | --- | --- | --- | --- | --- | --- | --- | --- | --- | --- | --- | --- | --- | --- | --- | --- | --- | --- |
| CC(=O)c1cccc(NCn2nnc3ccccc32)c1 | > 100 | > 100 | > 100 | > 100 | > 100 | > 100 | > 100 | > 100 | > 100 | > 100 | > 100 | > 100 | > 100 | > 100 |  |  |  |  |  |  |
| [O-]c1on[n+]2c1c(Nc1ccc(Cl)cc1)nc1ccccc12 | > 100 | > 100 | > 100 | > 100 | > 100 | > 100 | > 100 | > 100 | > 100 | > 100 | > 100 | > 100 |  | > 100 | > 100 |  |  |  |  |  |
| CC(Oc1ccc(OCC2CCCCC2)cc1)C(=O)N(CCO)CCO (configuration not stated) | > 100 | > 100 |  | > 100 | > 100 | > 100 | > 100 | > 100 | > 100 |  | > 100 | > 100 | > 100 | > 100 |  |  |  |  |  |  |
| CC(CCc1ccc2c(c1)c(=N)c1ccc(N)cc1n2O)CC(C)(C)C (configuration not stated) | 3.51 | 3.63 | 3.04 |  | 2.69 | 3.22 | 3.14 | 3.42 |  | 2.79 |  |  |  | 2.67 | 2.93 | 3.19 |  |  |  |  |
| CC(C)N1CSC(=S)N(Cc2ccccc2)C1 | > 10 |  | > 10 | > 10 | > 10 | > 10 | > 10 | 0.652 | > 10 | > 10 |  | > 10 |  | > 10 |  |  | 7.44 | > 10 |  |  |
| CCOC(=O)C(O)(NC(=O)Nc1ccc(F)cc1)C(F)(F)F (configuration not stated) |  | > 100 | > 100 | > 100 | > 100 | > 100 | > 100 | > 100 |  | > 100 |  | > 100 |  | > 100 | > 100 | > 100 | > 100 |  | > 100 |  |
| O=C1CCC[C@H]2O[C@@H](COCc3ccccc3)C[C@@H]12 | > 100 | > 100 |  | > 100 | > 100 | > 100 | > 100 | > 100 | > 100 | > 100 |  |  | > 100 | > 100 | > 100 | > 100 | > 100 | > 100 |  | > 100 |
| CC(=O)O[C@]12CCC[C@H]1C1(O)C(O)CCC[C@H]12 (some centres not stated) | > 100 | > 100 | > 100 | > 100 | > 100 | > 100 | > 100 | > 100 | > 100 | > 100 | > 100 |  | > 100 | > 100 |  |  |  |  |  |  |
| O=C1CCc2cc3c(cc21)CC1(Cc2ccccc2C1)C3 | > 100 | 65.2 | > 100 | > 100 | 7.03 | > 100 | > 91.7 | 5.26 | > 100 | 17.2 | > 79.9 | > 70.5 | 67.7 | > 100 | > 86.9 | 47.2 | 4.76 | > 100 |  | > 100 |
| O=C(CC(C(=O)c1cccs1)c1ccsc1)c1ccsc1 (configuration not stated) | > 100 | > 100 | > 100 | > 100 | > 100 | > 100 | > 100 | > 100 | > 100 | 53.5 | 50 | > 100 |  | > 100 | > 100 |  |  | > 100 | > 100 | > 100 |
| CCOC(=O)C1(Cc2c[nH]c3ccccc23)C(O)CCCN1C(C)=O (configuration not stated) | > 100 | > 100 | > 100 | > 100 | > 100 | > 100 | > 100 | > 100 | > 100 | > 100 |  | > 100 | > 100 | > 100 | > 100 | > 100 |  | > 100 | > 100 | > 100 |
| O=[N+]([O-])c1nccn1CC1OC(n2ccnc2[N+](=O)[O-])C(O)C(O)C1O (configuration not stated) | > 100 | > 100 | > 100 | > 100 | > 100 | > 100 | > 100 | > 100 | > 100 | > 100 |  | > 100 | > 100 | > 100 | > 100 |  | > 100 | > 100 | > 100 |  |
| CC(C)CNC(=O)Cn1c2c(c3ccccc31)CCCC2 |  | > 100 | > 100 | > 100 | > 100 | > 100 | > 100 | > 100 | > 100 | > 100 |  | > 100 |  |  | > 100 | > 100 | > 100 | > 100 | > 100 |  |
| Cc1cccc(Nc2cn(CCOc3ccccc3)c(=O)n(CCOc3ccccc3)c2=O)c1 | > 100 | > 100 | 96.9 | > 100 | > 100 | > 100 | > 100 |  | > 100 | > 100 |  | > 100 |  | > 100 | > 100 | > 100 | > 100 | > 100 |  | > 100 |
| CCN1C(=O)C(=Cc2ccc(-c3ccccc3)cc2)C(=O)N(CC)C1=S | > 100 | > 100 | > 100 | > 100 | > 100 | > 100 | > 100 | > 100 | > 100 | > 100 |  | > 100 | > 100 | > 100 | > 100 | > 100 |  | > 100 | > 100 | > 100 |
